Target: T1, CCR1 (Homo sapiens, UniProt P32246)
T1 construct: host or cells: THP-1 cells or monocytes isolated from human buffy coats
T1 sequence (P32246 1-355): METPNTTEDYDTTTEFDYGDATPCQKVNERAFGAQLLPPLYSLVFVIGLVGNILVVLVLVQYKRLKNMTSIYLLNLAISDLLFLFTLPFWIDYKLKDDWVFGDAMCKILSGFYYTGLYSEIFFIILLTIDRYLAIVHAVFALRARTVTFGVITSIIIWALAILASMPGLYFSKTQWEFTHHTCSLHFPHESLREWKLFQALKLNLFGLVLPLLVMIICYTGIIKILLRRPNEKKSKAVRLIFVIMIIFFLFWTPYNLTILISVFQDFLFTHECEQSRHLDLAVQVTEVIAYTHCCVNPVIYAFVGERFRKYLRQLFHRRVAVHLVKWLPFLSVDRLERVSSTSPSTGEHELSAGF
Experiment: CCR1 chemotaxis assay or binding assay (activity given for either)
Conditions: either the chemotaxis assay or binding assay; CCR1 expressing cells (THP-1 or human monocytes); read-out: Activity (IC50 class)
Method: Cells were grown under 5% CO2/95% air, 100% humidity at 37° C. and subcultured twice weekly at 1:5 (cells were cultured at a density range of 2×10^5 to 2×10^6 cells/mL) and harvested at 1×10^6 cells/mL. THP-1 cells express CCR1 and can be used in CCR1 binding and functional assays.
Monocytes were isolated from human buffy coats using the Miltenyi bead isolation system (Miltenyi, Auburn, Calif.). Briefly, following a Ficoll gradient separation to isolate peripheral blood mononuclear cells, cells were washed with PBS and the red blood cells lysed using standard procedures. Remaining cells were labeled with anti-CD14 antibodies coupled to magnetic beads (Miltenyi Biotech, Auburn, Calif.). Labeled cells were passed through AutoMACS (Miltenyi, Auburn, Calif.) and positive fraction collected. Monocytes express CCR1 and can be used in CCR1 binding and functional assays.
CCR1 expressing cells were centrifuged and resuspended in assay buffer (20 Mm HEPES pH 7.1, 140 Mm NaCl, 1 Mm CaCl2, 5 Mm MgCl2, and with 0.2% bovine serum albumin) to a concentration of 5×10^6 cells/mL for THP-1 cells and 5×10^5 for monocytes. Binding assays were set up as follows. […] Reactions were aspirated onto GF/B glass filters pre-soaked in 0.3% polyethyleneimine (PEI) solution, on a vacuum cell harvester (Packard Instruments; Meriden, Conn.). Scintillation fluid (40 μl; Microscint 20, Packard Instruments) was added to each well, the plates were sealed and radioactivity measured in a Topcount scintillation counter (Packard Instruments). Control wells containing either diluent only (for total counts) or excess MIP-1α or MIP-1β (1 μg/mL, for non-specific binding) were used to calculate the percent of total inhibition for compound. The computer program Prism from GraphPad, Inc. (San Diego, Calif.) was used to calculate IC50 values.
Chemotaxis assays were performed using 5 ┌ m pore polycarbonate, polyvinylpyrrolidone-coated filters in 96-well chemotaxis chambers (Neuroprobe; Gaithersburg, Md.) using chemotaxis buffer (Hank's balanced salt solution (HBSS) and 1% FBS). CCR1 chemokine ligands (i.e., MIP-1α, CCL15/Leukotactin; R&D Systems; Minneapolis, Minn.) are use to evaluate compound mediated inhibition of CCR1 Mediated migration. Other chemokines (i.e., SDF-1α; R&D Systems; Minneapolis, Minn.) are used as specificity controls. […] The chambers were incubated 1-2 hours at 37° C., and the number of cells in the lower chamber quantified either by direct cell counts in five high powered fields per well or by the CyQuant assay (Molecular Probes), a fluorescent dye method that measures nucleic acid content and microscopic observation.
THP-1 cells and monocytes lack other chemokine receptors that bind the same set of chemokine ligands as CCR1 (i.e., MIP-1α, MPIF-1, Leukotactin, etc.). Equal numbers of cells were added to each well in the plate. The cells were then incubated with radiolabeled MIP-1α. Unbound ligand was removed by washing the cells, and bound ligand was determined by quantifying radioactive counts. […] Percent inhibition was determined by the equation: […]
In the assay, the amount of compound was varied; while cell number and ligand concentration were held constant.
One of the primary functions of chemokines is their ability to mediate the migration of chemokine receptor-expressing cells, such as white blood cells. […] THP-1 Myelomonocytic leukemia cells, which resemble monocytes, as wells as freshly isolated monocytes, were used as targets for chemoattraction by CCR1 chemokine ligands (i.e., MIP-1α, CCL15/leukotactin). […] In this assay, the amount of compound was varied; while cell number and chemokine agonist concentrations were held constant. After the chemotaxis chambers were incubated 1-2 hours at 37° C., the responding cells in the lower chamber were quantified by labeling with the CyQuant assay (Molecular Probes), a fluorescent dye method that measures nucleic acid content, and by measuring with a Spectrafluor Plus (Tecan).

SMILES: COc1cc(N2CCN(C(=O)Cn3ncc4cccnc43)[C@@H](C)C2)c(F)cc1Cl [Compound 1.001]
- IC50: < 1000 nM

SMILES: COc1cc(N2CCN(C(=O)Cn3cc4cccnc4n3)[C@@H](C)C2)c(F)cc1Cl [Compound 1.002]
- IC50: < 1000 nM

SMILES: COc1cc(N2CCN(C(=O)Cn3nc(N)c4cccnc43)[C@@H](C)C2)c(F)cc1Cl [Compound 1.003]
- IC50: < 1000 nM

SMILES: COc1cc(N2CCN(C(=O)Cn3nc(Cl)c4cccnc43)CC2)ccc1Cl [Compound 1.004]
- IC50: < 1000 nM

SMILES: COc1cc(N2CCN(C(=O)Cn3nc(C)c4cccnc43)[C@@H](C)C2)c(F)cc1Cl [Compound 1.005]
- IC50: < 1000 nM

SMILES: COc1cc(N2CCN(C(=O)Cn3cc4cccnc4n3)CC2)ccc1Cl [Compound 1.006]
- IC50: < 1000 nM

SMILES: COc1cc(N2CCN(C(=O)Cn3ncc4cccnc43)CC2)ccc1Cl [Compound 1.007]
- IC50: < 1000 nM

SMILES: COc1cc(N2CCN(C(=O)Cn3ncc4cnccc43)[C@@H](C)C2)c(F)cc1Cl [Compound 1.008]
- IC50: < 1000 nM

SMILES: COc1cc(N2CCN(C(=O)Cn3cc4ccncc4n3)[C@@H](C)C2)c(F)cc1Cl [Compound 1.009]
- IC50: < 1000 nM

SMILES: COc1cc(N2CCN(C(=O)Cn3nc(-c4ccccn4)c4cccnc43)CC2)ccc1Cl [Compound 1.010]
- IC50: < 1000 nM

SMILES: COc1cc(N2CCN(C(=O)Cn3nc(-c4nccs4)c4cccnc43)CC2)ccc1Cl [Compound 1.011]
- IC50: 2500 to 12500 nM

SMILES: COc1cc(N2CCN(C(=O)Cn3ncc4cccnc43)CC2)c(F)cc1Cl [Compound 1.012]
- IC50: < 1000 nM

SMILES: COc1cc(N2CCN(C(=O)Cn3cc4cccnc4n3)CC2)c(F)cc1Cl [Compound 1.013]
- IC50: < 1000 nM

SMILES: COc1cc(N2CCN(C(=O)Cn3nc(C)c4cccnc43)CC2)ccc1Cl [Compound 1.014]
- IC50: 1000 to 2500 nM

SMILES: COc1cc(N2CCN(C(=O)Cn3nc(-c4ncco4)c4cccnc43)CC2)ccc1Cl [Compound 1.015]
- IC50: < 1000 nM

SMILES: COc1cc(N2CCN(C(=O)Cn3nc(F)c4cccnc43)CC2)ccc1Cl [Compound 1.016]
- IC50: < 1000 nM

SMILES: COc1cc(N2CCN(C(=O)Cn3nc(-c4ncco4)c4cccnc43)[C@@H](C)C2)c(F)cc1Cl [Compound 1.017]
- IC50: < 1000 nM

SMILES: COc1cc(N2CCN(C(=O)Cn3cc4ccncc4n3)CC2)ccc1Cl [Compound 1.018]
- IC50: < 1000 nM

SMILES: COc1cc(N2CCN(C(=O)Cn3ncc4ccncc43)CC2)ccc1Cl [Compound 1.019]
- IC50: < 1000 nM

SMILES: COc1cc(N2CCN(C(=O)Cn3nc(-c4nccs4)c4cccnc43)[C@@H](C)C2)c(F)cc1Cl [Compound 1.021]
- IC50: < 1000 nM

SMILES: COc1cc(N2CCN(C(=O)Cn3nc(-c4ccccn4)c4cccnc43)[C@@H](C)C2)c(F)cc1Cl [Compound 1.022]
- IC50: < 1000 nM

SMILES: COc1cc(N2CCN(C(=O)Cn3nc(C)c4cccnc43)CC2)ccc1Cl [Compound 1.023]
- IC50: < 1000 nM

SMILES: COc1cc(N2CCN(C(=O)Cn3nc(-c4nccs4)c4cccnc43)CC2)ccc1Cl [Compound 1.025]
- IC50: < 1000 nM

SMILES: COc1cc(N2CCN(C(=O)Cn3nc(C#N)c4cccnc43)CC2)ccc1Cl [Compound 1.026]
- IC50: < 1000 nM

SMILES: COc1cc(N2CCN(C(=O)Cn3cc4ncccc4n3)CC2)ccc1Cl [Compound 1.027]
- IC50: < 1000 nM

SMILES: COc1cc(N2CCN(C(=O)Cn3ncc4ncccc43)CC2)ccc1Cl [Compound 1.028]
- IC50: < 1000 nM

SMILES: COc1cc(N2CCN(C(=O)Cn3nc4ncccc4c3Cl)CC2)ccc1Cl [Compound 1.029]
- IC50: < 1000 nM

SMILES: COc1cc(N2CCN(C(=O)Cn3ncc4ccc[n+]([O-])c43)CC2)ccc1Cl [Compound 1.030]
- IC50: < 1000 nM

SMILES: COc1cc(N2CCN(C(=O)Cn3ncc4ccc(C)nc43)CC2)ccc1Cl [Compound 1.031]
- IC50: < 1000 nM

SMILES: COc1cc(N2CCN(C(=O)Cn3cc4ccc(C)nc4n3)CC2)ccc1Cl [Compound 1.032]
- IC50: < 1000 nM

SMILES: COc1cc(N2CCN(C(=O)Cn3nc(N4CCOCC4)c4cccnc43)CC2)ccc1Cl [Compound 1.033]
- IC50: < 1000 nM

SMILES: COc1cc(N2CCN(C(=O)Cn3ncc4ccncc43)[C@@H](C)C2)c(F)cc1Cl [Compound 1.034]
- IC50: < 1000 nM

SMILES: COc1cc(N2CCN(C(=O)Cn3ncc4cc[n+]([O-])cc43)CC2)ccc1Cl [Compound 1.035]
- IC50: < 1000 nM

SMILES: COc1cc(N2CCN(C(=O)Cn3cc4c(Cl)nccc4n3)CC2)ccc1Cl [Compound 1.036]
- IC50: < 1000 nM

SMILES: COc1cc(N2CCN(C(=O)Cn3cc4c(I)ccnc4n3)CC2)ccc1Cl [Compound 1.037]
- IC50: < 1000 nM

SMILES: COc1cc(N2CCN(C(=O)Cn3ncc4c(I)ccnc43)CC2)ccc1Cl [Compound 1.038]
- IC50: < 1000 nM

SMILES: COc1cc(N2CCN(C(=O)Cn3ncc4c(S(C)(=O)=O)ccnc43)CC2)ccc1Cl [Compound 1.039]
- IC50: < 1000 nM

SMILES: COc1cc(N2CCN(C(=O)Cn3nc(CN=[N+]=[N-])c4cccnc43)CC2)ccc1Cl [Compound 1.040]
- IC50: < 1000 nM

SMILES: COc1cc(N2CCN(C(=O)Cn3nc(CS(=O)(=O)O)c4cccnc43)CC2)ccc1Cl [Compound 1.041]
- IC50: 1000 to 2500 nM

SMILES: COc1cc(N2CCN(C(=O)Cn3ncc4cc(Cl)cnc43)CC2)ccc1Cl [Compound 1.042]
- IC50: < 1000 nM

SMILES: COc1cc(N2CCN(C(=O)Cn3ncc4c(Cl)ncnc43)CC2)ccc1Cl [Compound 1.044]
- IC50: < 1000 nM

SMILES: COc1cc(N2CCN(C(=O)Cn3ncc4c(OC)ncnc43)CC2)ccc1Cl [Compound 1.045]
- IC50: < 1000 nM

SMILES: COc1cc(N2CCN(C(=O)Cn3cc4ccc(Cl)nc4n3)CC2)ccc1Cl [Compound 1.046]
- IC50: < 1000 nM

SMILES: COc1cc(N2CCN(C(=O)Cn3ncc4ccc(Cl)nc43)CC2)ccc1Cl [Compound 1.047]
- IC50: < 1000 nM

SMILES: COc1cc(N2CCN(C(=O)Cn3ncc4ccc(N=[N+]=[N-])nc43)CC2)ccc1Cl [Compound 1.048]
- IC50: < 1000 nM

SMILES: COc1cc(N2CCN(C(=O)Cn3ncc4ccc(N)nc43)CC2)ccc1Cl [Compound 1.049]
- IC50: < 1000 nM

SMILES: COc1cc(N2CCN(C(=O)Cn3ncc4ccnc(N=[N+]=[N-])c43)CC2)ccc1Cl [Compound 1.050]
- IC50: < 1000 nM

SMILES: COc1cc(N2CCN(C(=O)Cn3ncc4ccnc(N)c43)CC2)ccc1Cl [Compound 1.051]
- IC50: < 1000 nM

SMILES: COc1cc(N2CCN(C(=O)Cn3nc4ncccc4c3-c3ncco3)CC2)ccc1Cl [Compound 1.052]
- IC50: < 1000 nM

SMILES: COc1cc(N2CCN(C(=O)Cn3nc(C)c4cc(N)cnc43)CC2)ccc1Cl [Compound 1.053]
- IC50: < 1000 nM

SMILES: COc1cc(N2CCN(C(=O)Cn3nc(C)c4cc([N+](=O)[O-])cnc43)CC2)ccc1Cl [Compound 1.054]
- IC50: < 1000 nM

SMILES: COc1cc(N2CCN(C(=O)Cn3nc(N)c4ccc(C)nc43)CC2)ccc1Cl [Compound 1.055]
- IC50: < 1000 nM

SMILES: COc1cc(N2CCN(C(=O)Cn3nc(-c4ncon4)c4cccnc43)[C@@H](C)C2)c(F)cc1Cl [Compound 1.056]
- IC50: < 1000 nM

SMILES: COc1cc(N2CCN(C(=O)Cn3nc(C(=N)NO)c4cccnc43)CC2)ccc1Cl [Compound 1.057]
- IC50: < 1000 nM

SMILES: COc1cc(N2CCN(C(=O)Cn3nc(-c4ncon4)c4cccnc43)CC2)ccc1Cl [Compound 1.058]
- IC50: < 1000 nM

SMILES: COc1cc(N2CCN(C(=O)Cn3nc(-c4noc(C)n4)c4cccnc43)CC2)ccc1Cl [Compound 1.059]
- IC50: < 1000 nM

Reference: US7777035B2, “Azaindazole compounds and methods of use” (Chemocentryx, Inc., priority 2005, dated 2010)
